The subject of assay [1] is Corn Earworm (CEW) (Helicoverpa zea). The assay is described as follows: Bioassays on Corn Earworm (CEW), 128-well diet tray assay. In kind it is in vivo. The following applies: 168 h, 50 μg/cm^2 test compound on artificial diet, second instar larvae, 25° C., five to seven days, average of eight wells, read-out: CEW Rating (% mortality). The procedure:
(§1) Certain molecules disclosed in this document were tested against BAW and CEW using procedures described in the following examples. In the reporting of the results, the “BAW & CEW Rating Table” was used (See Table Section).
Bioassays on CEW (Helicoverpa zea)
Bioassays on CEW were conducted using a 128-well diet tray assay. one to five second instar CEW larvae were placed in each well (3 mL) of the diet tray that had been previously filled with 1 mL of artificial diet to which 50 μg/cm^2 of the test compound (dissolved in 50 μL of 90:10 acetone-water mixture) had been applied (to each of eight wells) and then allowed to dry. Trays were covered with a clear self-adhesive cover, and held at 25° C., 14:10 light-dark for five to seven days. Percent mortality was recorded for the larvae in each well; activity in the eight wells was then averaged. The results are indicated in the table entitled “Table 3: Assay Results” (See Table Section).

The test system of assay [2] is Beet Armyworm (BAW) (Spodoptera exigua). The assay is described as follows: Bioassays on Beet Armyworm (BAW), 128-well diet tray assay. The following applies: 168 h, 50 μg/cm^2 test compound on artificial diet, second instar larvae, 25° C., five to seven days, average of eight wells, read-out: BAW Rating (% mortality). The format is in vivo. The procedure:
as §1
Bioassays on BAW (Spodoptera exigua)
Bioassays on BAW were conducted using a 128-well diet tray assay. one to five second instar BAW larvae were placed in each well (3 mL) of the diet tray that had been previously filled with 1 mL of artificial diet to which 50 μg/cm^2 of the test compound (dissolved in 50 μL of 90:10 acetone-water mixture) had been applied (to each of eight wells) and then allowed to dry. Trays were covered with a clear self-adhesive cover, and held at 25° C., 14:10 light-dark for five to seven days. Percent mortality was recorded for the larvae in each well; activity in the eight wells was then averaged. The results are indicated in the table entitled “Table 3: Assay Results” (See Table Section).

Take `Cc1cc(/C=C/C(c2cc(Cl)cc(Cl)c2)C(F)(F)F)ccc1-n1cncn1` (stereo not shown) [DC62]: the mortality at 50 µg/cm2 in assay [1] and in assay [2] was 50 to 100% each time.

Regarding `CC(=O)N1CCC(NC(=O)c2ccc(/C=C/C(c3cc(Cl)c(Cl)c(Cl)c3)C(F)(F)F)cc2Br)CC1` (stereo not shown) [AC103, (E)-N-(1-acetylpiperidin-4-yl)-2-bromo-4-(4,4,4-trifluoro-3-(3,4,5-trichlorophenyl)but-1-en-1-yl)benzamide], the mortality at 50 µg/cm2 in assay [1] and in assay [2] was 50 to 100% throughout.

On to `FC(F)(F)C(/C=C/c1ccc(-n2cncn2)cc1)c1cc(Cl)cc(Cl)c1` (stereo not shown) [DC1, (E)-1-(4-(3-(3,5-dichlorophenyl)-4,4,4-trifluorobut-1-en-1-yl)phenyl)-1H-1,2,4-triazole], for which the mortality at 50 µg/cm2 in assay [1] and in assay [2] was 50 to 100% throughout.

On to `N#Cc1cc(/C=C/C(c2cccc(Cl)c2)C(F)(F)F)ccc1-n1cncn1` (stereo not shown) [DC32], for which the mortality at 50 µg/cm2 in assay [1] and in assay [2] was 0% throughout.

As for `O=C(CC(F)(F)F)NCc1ccc(/C=C/C(c2cc(Cl)c(Cl)c(Cl)c2)C(F)(F)F)cc1` (stereo not shown) [CC6], the mortality at 50 µg/cm2 in assay [1] and in assay [2] was 50 to 100% each time.

`CN(C)C(=O)NCc1ccc(/C=C/C(c2cc(Cl)c(Cl)c(Cl)c2)C(F)(F)F)cc1Cl` (stereo not shown) [CC36, (E)-3-(2-chloro-4-(4,4,4-trifluoro-3-(3,4,5-trichlorophenyl)but-1-en-1-yl)benzyl)-1,1-dimethylurea]: the mortality at 50 µg/cm2 in assay [1] and in assay [2] was 50 to 100% each time.

As to `CSCCC(=O)NCc1ccc(/C=C/C(c2cc(Cl)c(Cl)c(Cl)c2)C(F)(F)F)cc1Cl` (stereo not shown) [CC19], the mortality at 50 µg/cm2 in assay [1] and in assay [2] was 50 to 100% throughout.

`O=C(NCc1ccc(/C=C/C(c2cc(Cl)cc(Cl)c2)C(F)(F)F)cc1Cl)C1CC1` (stereo not shown) [CC8]: the mortality at 50 µg/cm2 in assay [1] and in assay [2] was 50 to 100% throughout.

`O=C(CC(F)(F)F)NC1CCc2cc(/C=C/C(c3cc(Cl)c(Cl)c(Cl)c3)C(F)(F)F)ccc21` (stereo not shown) [BC4, (E)-3,3,3-trifluoro-N-(5-(4,4,4-trifluoro-3-(3,4,5-trichlorophenyl)but-1-enyl)-2,3-dihydro-1H-inden-1-yl)propanamide]: the mortality at 50 µg/cm2 in assay [1] and in assay [2] was 50 to 100% throughout.

As for `Cc1cc(/C=C/C(c2cc(Cl)cc(Cl)c2)C(F)(F)F)ccc1C(=O)NCC1CCCO1` (stereo not shown) [AC118], the figures for the mortality at 50 µg/cm2 in assay [1] and in assay [2] were 0% and 50 to 100%, respectively.

Consider `O=C(CNC(=O)c1ccc(/C=C/C(c2cc(Cl)c(F)c(Cl)c2)C(F)(F)F)cc1[N+](=O)[O-])NCC(F)(F)F` (stereo not shown) [AC98], for which the mortality at 50 µg/cm2 in assay [1] and in assay [2] was 50 to 100% each time.

For `O=C(CNC(=O)c1ccc(/C=C/C(c2cc(Cl)cc(Cl)c2)C(F)(F)F)cc1F)NCC(F)(F)F` (stereo not shown) [AC62], the mortality at 50 µg/cm2 in assay [1] and in assay [2] was 50 to 100% in each case.

On to `O=C(NCc1ccc(Cl)nc1)c1ccc(/C=C/C(c2cc(Cl)c(F)c(Cl)c2)C(F)(F)F)cc1F` (stereo not shown) [AC65], for which the mortality at 50 µg/cm2 in assay [1] and in assay [2] was 50 to 100% each time.

In the case of `FC(F)(F)CNC(=S)CNC(=S)c1ccc(/C=C/C(c2cc(Cl)c(Cl)c(Cl)c2)C(F)(F)F)cc1Br` (stereo not shown) [AC90, (E)-2-bromo-N-(2-thioxo-2-((2,2,2-trifluoroethyl)amino)ethyl)-4-(4,4,4-trifluoro-3-(3,4,5-trichlorophenyl)but-1-en-1-yl)benzothioamide], the mortality at 50 µg/cm2 in assay [1] and in assay [2] was 50 to 100% throughout.

Regarding `C=CCNC(=O)CNC(=O)c1ccc(/C=C/C(c2cc(Cl)c(Cl)c(Cl)c2)C(F)(F)F)cc1Br` (stereo not shown) [AC111], the mortality at 50 µg/cm2 in assay [1] and in assay [2] was 50 to 100% in each case.

In the case of `Cc1cc(/C=C/C(c2cc(Cl)cc(Cl)c2)C(F)(F)F)ccc1C(=O)NN(C)c1ccccc1F` (stereo not shown) [AC45], the mortality at 50 µg/cm2 in assay [1] and in assay [2] was 50 to 100% each time.

Take `O=C(NCc1ccc(/C=C/C(c2cc(Cl)cc(Cl)c2)C(F)(F)F)cc1C(F)(F)F)C1CC1` (stereo not shown) [CC21]: the mortality at 50 µg/cm2 in assay [1] and in assay [2] was 50 to 100% throughout.

Turning to `Cc1cc(/C=C/C(c2cc(Cl)c(Cl)c(Cl)c2)C(F)(F)F)cc(C#N)c1-n1cncn1` (stereo not shown) [DC45], the mortality at 50 µg/cm2 in assay [1] and in assay [2] was 50 to 100% throughout.

Consider `Cc1cc(/C=C/C(c2cc(Cl)cc(Cl)c2)C(F)(F)F)ccc1C(=O)NCc1cnccn1` (stereo not shown) [AC43], for which the mortality at 50 µg/cm2 in assay [1] and in assay [2] was 50 to 100% throughout.

As to `Cc1cc(/C=C/C(c2cc(Cl)c(Cl)c(Cl)c2)C(F)(F)F)ccc1C(=O)NCc1cnc(Cl)s1` (stereo not shown) [AC26], the mortality at 50 µg/cm2 in assay [1] and in assay [2] was 50 to 100% each time.

As for `Cc1cc(/C=C/C(c2cc(Cl)c(Cl)c(Cl)c2)C(F)(F)F)ccc1C(=O)NC(C)(C)c1ccccn1` (stereo not shown) [AC27], the mortality at 50 µg/cm2 in assay [1] and in assay [2] was 50 to 100% in each case.

As for `Cc1cc(/C=C/C(c2cc(Cl)c(F)c(Cl)c2)C(F)(F)F)ccc1C(=O)NCc1ccnc(Cl)c1` (stereo not shown) [AC54], the mortality at 50 µg/cm2 in assay [1] and in assay [2] was 50 to 100% in each case.

`Cc1cc(/C=C/C(c2cc(Cl)cc(Cl)c2)C(F)(F)F)ccc1C(=O)NCc1cccnc1` (stereo not shown) [AC14]: the mortality (in general, the percentage killed) at 50 µg/cm2 in assay [1] was in the range of 0 to 50%; in assay [2], 50 to 100%.

Consider `OC(/C=C/c1ccc(-n2cncn2)cc1)(c1cc(Cl)cc(Cl)c1)C(F)(F)F` (stereo not shown) [DC69, (E)-4-(4-(1H-1,2,4-triazol-1-yl)phenyl)-2-(3,5-dichlorophenyl)-1,1,1-trifluorobut-3-en-2-ol], for which the mortality at 50 µg/cm2 in assay [1] and in assay [2] was 0% throughout.

On to `O=C(CC(F)(F)F)NNc1ccc(/C=C/C(c2cc(Cl)c(Cl)c(Cl)c2)C(F)(F)F)cc1` (stereo not shown) [CC51], for which the mortality at 50 µg/cm2 in assay [1] and in assay [2] was 50 to 100% in each case.

On to `O=[N+]([O-])c1ncn(-c2ccc(/C=C/C(c3cc(Cl)cc(Cl)c3)C(F)(F)F)cc2)n1` (stereo not shown) [DC22], for which the mortality at 50 µg/cm2 in assay [1] and in assay [2] was 0% throughout.

Take `CCNC(=O)NCc1ccc(/C=C/C(c2cc(Cl)c(Cl)c(Cl)c2)C(F)(F)F)cc1Br` (stereo not shown) [CC33]: the mortality at 50 µg/cm2 in assay [1] and in assay [2] was 50 to 100% each time.

On to `O=C(NC1CS(=O)(=O)C1)c1ccc(/C=C/C(c2cc(Cl)c(Cl)c(Cl)c2)C(F)(F)F)cc1C(F)(F)F` (stereo not shown) [AC35], for which the mortality at 50 µg/cm2 in assay [1] and in assay [2] was 50 to 100% throughout.

On to `O=C(CC(F)(F)F)NCc1ncc(/C=C/C(c2cc(Cl)c(Cl)c(Cl)c2)C(F)(F)F)cc1Cl` (stereo not shown) [CC44, (E)-N-((3-chloro-5-(4,4,4-trifluoro-3-(3,4,5-trichlorophenyl)-but-1-en-1-yl)pyridin-2-yl)methyl)-3,3,3-trifluoropropanamide], for which the mortality at 50 µg/cm2 in assay [1] and in assay [2] was 50 to 100% each time.

For `CC(=O)Nc1cc(/C=C/C(c2cc(Cl)cc(Cl)c2)C(F)(F)F)ccc1-n1cncn1` (stereo not shown) [DC56], the mortality at 50 µg/cm2 in assay [1] and in assay [2] was 0% throughout.

Consider `Cc1cc(C)cc(C(/C=C/c2ccc(-n3cncn3)cc2)C(F)(F)F)c1` (stereo not shown) [DC11], for which the figures for the mortality at 50 µg/cm2 in assay [1] and in assay [2] were 0% and 50 to 100%, respectively.

On to `Cc1cc(/C=C/C(c2cc(Cl)cc(Cl)c2)C(F)(F)F)ccc1C(=O)NCc1nnc(C2CC2)o1` (stereo not shown) [AC89, (E)-N-((5-cyclopropyl-1,3,4-oxadiazol-2-yl)methyl)-4-(3-(3,5-dichlorophenyl)-4,4,4-trifluorobut-1-en-1-yl)-2-methylbenzamide], for which the mortality at 50 µg/cm2 in assay [1] and in assay [2] was 50 to 100% in each case.

In the case of `O=C(CC(F)(F)F)NCc1ccc(/C=C/C(c2cc(Cl)c(Cl)c(Cl)c2)C(F)(F)F)cc1C(F)(F)F` (stereo not shown) [CC24], the mortality at 50 µg/cm2 in assay [1] and in assay [2] was 50 to 100% in each case.

Take `Cc1cc(/C=C/C(c2cc(Cl)cc(Cl)c2)C(F)(F)F)ccc1C(=O)NC1CS(=O)(=O)C1` (stereo not shown) [AC13]: the mortality at 50 µg/cm2 in assay [1] and in assay [2] was 50 to 100% each time.

As to `Cc1cc(/C=C/C(c2cc(Cl)c(Cl)c(Cl)c2)C(F)(F)F)ccc1C(=O)NC1CS(=O)(=O)C1` (stereo not shown) [AC25], the mortality at 50 µg/cm2 in assay [1] and in assay [2] was 50 to 100% in each case.

For `CCNC(=S)NCc1ccc(/C=C/C(c2cc(Cl)c(Cl)c(Cl)c2)C(F)(F)F)cc1Cl` (stereo not shown) [CC37, (E)-1-(2-chloro-4-(4,4,4-trifluoro-3-(3,4,5-trichlorophenyl)but-1-en-1-yl)benzyl)-3-ethylthiourea], the mortality at 50 µg/cm2 in assay [1] and in assay [2] was 50 to 100% throughout.

With `O=C(CNC(=O)c1ccc(/C=C/C(c2cc(Cl)c(Cl)c(Cl)c2)C(F)(F)F)cc1Br)NCC(F)(F)F` (stereo not shown) [AC66], the mortality at 50 µg/cm2 in assay [1] and in assay [2] was 50 to 100% throughout.

On to `O=C(CC(F)(F)F)NC1CCCc2cc(/C=C/C(c3cc(Cl)c(Cl)c(Cl)c3)C(F)(F)F)ccc21` (stereo not shown) [BC5], for which the mortality at 50 µg/cm2 in assay [1] and in assay [2] was 50 to 100% in each case.
